Data taken from patent publication US12545637B2, “Extrahepatic targeted cationic lipid compound with high efficiency and low toxicity and its composition” (BEIJING YOUCARE KECHUANG PHARMACEUTICAL TECHNOLOGY CO., LTD., priority 2023, dated 2026).
Several values for one entry are separate records, joined by “and”; a condition that tells them apart may be missing. Identical values can stand only once.

How the values were obtained:
293T cells [1] = experiment: Fluorescent detection of Fluc-mRNA (cell transfection efficiency of LNP formulations); assay type: cell-based
[2] = Particle size and polydispersity index (PDI) of lipid nanoparticles by dynamic light scattering; assay type: physicochemical
Procedure: The particle size and polydispersity index (PDI) were determined by dynamic light scattering using Malvern laser particle size analyzer.
10 μL of the liposome solution was weighed, diluted to 1 mL with RNase-free deionized water, and added to the sample pool. Each sample was measured in triplicate. The measurement conditions were: […] scattering angle, and 25° C.

293T cells [3] = experiment: Cell transfection test of LNP formulation of eGFP-mRNA (optimization of preparation conditions); assay type: cell-based
Procedure: The cationic lipid compound YK-407 synthesized in Example 1 was dissolved in ethanol with DSPC (AVT (Shanghai) Pharmaceutical Technology Co., Ltd.), cholesterol (AVT (Shanghai) Pharmaceutical Technology Co., Ltd.) and DMG-PEG2000 according to a molar ratio of 49:10:39.5:1.5, respectively, to prepare an ethanol lipid solution. The ethanol lipid solution was quickly added to citrate buffer (pH=4-5) by ethanol injection method, and vortexed for 30s for later use. eGFP-mRNA was diluted in citrate buffer (pH=4-5) to give an aqueous mRNA solution. A certain volume of liposome solution and mRNA aqueous solution were used to prepare liposomes at weight ratios of total lipids to mRNA of 5:1, 10:1, 15:1, 20:1, 30:1 and 35:1, respectively. The mixtures were sonicated at 25° C. for 15 min (with an ultrasonic frequency of 40 kHz and an ultrasonic power of 800 W). The resulted liposomes were diluted to 10 times volume with PBS, and then ultrafiltered with a 300KDa ultrafiltration tube to remove ethanol. Then the volume was fixed to a certain volume with PBS to give an LNP formulation encapsulating eGFP-mRNA using cationic lipid YK-407/DSPC/cholesterol/DMG-PEG2000 (49:10:39.5:1.5 in molar percentage).
The LNP formulation encapsulating eGFP-mRNA was prepared according to the method in 1, wherein the molar ratios of cationic lipid YK-407 to neutral lipid DSPC were 1:1, 3:1, 3.5:1, 4:1, 4.5:1, 4.9:1, 10:1, 15:1 and 20:1.
The LNP formulation encapsulating eGFP-mRNA was prepared according to the method in 1, wherein the cationic lipid in the carrier was YK-407, and the molar ratios of the polymer-conjugated lipid DMG-PEG2000 to the carrier were 0.5%, 1.5%, 3.5%, 5%, 10% and 15%, respectively.
The LNP formulation encapsulating eGFP-mRNA was prepared according to the method in 1, wherein the molar ratios of cationic lipid YK-407, neutral lipid DSPC, structured lipid cholesterol and polymer-conjugated lipid DMG-PEG2000 were 75:5:15:5, 49:10:39.5:1.5, 45:10:43.5:1.5, 45:25:20:10, 40:10:48.5:1.5, 35:10:53.5:1.5 and 25:5:65:5, respectively.
Cell recovery and passage: 293T cells were recovered, cultured in a culture dish, and passaged to the required number of cells.
Seeding plate: The cells in the culture dish were digested and counted. Cells were spread in a 96-well plate at 10,000 cells per well and in a 12-well plate at 150,000 cells per well. Cells were cultured overnight until the cells adhered to the wall.
Cell transfection test: The LNP formulation containing 1.5 μg of eGFP-mRNA prepared in Example 2 (the cationic lipid in the carrier was YK-407) and the Lipofectamin 3000 formulation of eGFP-mRNA were added respectively to the cell culture medium of the 12-well plate, and further incubated for 24 hours. The transfection efficiency of different samples was then investigated according to the fluorescence intensity by observing with a fluorescence microscope.

293T cells [4] = experiment: Fluorescent detection of Fluc-mRNA (cell transfection efficiency of LNP formulations); assay type: cell-based; remark: listed apart in the source
293T cells [5] = experiment: Cell survival rate assay (CCK-8); assay type: cell-based
In short: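 293T cells seeded at 10,000 cells/well, cultured overnight, then exposed 24 h to LNP carrying 1.5 μg Fluc-mRNA (cationic:neutral:structured:PEG-type lipid 49:10:39.5:1.5) or Lipofectamine 3000. Viability read by CCK-8, 1 h incubation, absorbance at 450 nm.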

CCCCCCCCC(CCCCCCCC)OC(=O)CCCCCN(CCO)CCN(CCO)CCCCCC(=O)OC(CCCCCCCC)CCCCCCCC [YK-401, di(heptadecan-9-yl) 6,6′-(ethane-1,2-diyl-bis((2-hydroxyethyl)azanediyl))dihexanoate]
Relative light unit (RLU) (293T cells [1]; LNP with 0.3 μg Fluc-mRNA, 96-well plate, 24 hours): 5609550 RLU
cell transfection efficiency, times that of YK-415 (293T cells [1]; ratio vs YK-415): 18.82
cell transfection efficiency, times that of YK-417 (293T cells [1]; ratio vs YK-417): 47.83
cell transfection efficiency, times that of YK-418 (293T cells [1]; ratio vs YK-418): 50.42
cell transfection efficiency, times that of YK-424 (293T cells [1]; ratio vs YK-424): 1.95
RLU value, times that of compound 21 (293T cells [1]; ratio vs compound 21): 3.71
RLU value, times that of compound 23 (293T cells [1]; ratio vs compound 23): 4.00
PDI ([2]; LNP formulation of the cationic lipid, 25° C.): 17.7%
Particle size ([2]; LNP formulation of the cationic lipid/DSPC/cholesterol/DMG-PEG2000 49:10:39.5:1.5, 25° C.): 152 nm
transfection efficiency at different molar ratios of polymer-conjugated lipid DMG-PEG2000 to carrier (293T cells [3]; 0.5% to 15%): same results
transfection effect at different molar ratios of cationic lipid, neutral lipid, structured lipid and polymer-conjugated lipid (293T cells [3]; 75:5:15:5 to 25:5:65:5): same results
RLU value, times that of ALC-0315 (293T cells [4]; ratio vs ALC-0315): 2.56
RLU value, times that of HHMA (293T cells [4]; ratio vs HHMA): 2.70
RLU value, times that of Lipofectamine 3000 (293T cells [4]; ratio vs Lipofectamine 3000): 4.67
RLU value, times that of YK-009 (293T cells [4]; ratio vs YK-009): 1.09
RLU value, times that of YK-405 (293T cells [4]; ratio vs YK-405): 1.75
RLU value, times that of YK-406 (293T cells [4]; ratio vs YK-406): 71.69
RLU value, times that of YK-408 (293T cells [4]; ratio vs YK-408): 3.81
RLU value, times that of YK-409 (293T cells [4]; ratio vs YK-409): 8.37
RLU value, times that of YK-410 (293T cells [4]; ratio vs YK-410): 13.75
cell transfection efficiency, times that of YK-412 (293T cells [4]; ratio vs YK-412): 1.66
cell transfection efficiency, times that of YK-413 (293T cells [4]; ratio vs YK-413): 4.07
cell transfection efficiency, times that of YK-414 (293T cells [4]; ratio vs YK-414): 12.63
cell transfection efficiency, times that of YK-416 (293T cells [4]; ratio vs YK-416): 1.41
cell transfection efficiency, times that of YK-419 (293T cells [4]; ratio vs YK-419): 1.77
cell transfection efficiency, times that of YK-420 (293T cells [4]; ratio vs YK-420): 1.40
cell transfection efficiency, times that of YK-421 (293T cells [4]; ratio vs YK-421): 12.02
Cell survival rate (293T cells [5]; LNP with 1.5 μg Fluc-mRNA, 24 hours, CCK-8): 75.21%
cell survival rate higher than ALC-0315 (293T cells [5]; difference vs ALC-0315): 28.00%
cell survival rate higher than HIMA (293T cells [5]; difference vs HIMA (HHMA)): 10.94%
cell survival rate higher than Lipofectamine 3000 (293T cells [5]; difference vs Lipofectamine 3000): 53.55%
cell survival rate higher than SM-102 (293T cells [5]; difference vs SM-102): 4.31% and 7.31%
cell survival rate higher than YK-404 (293T cells [5]; difference vs YK-404): 33.09%
cell survival rate higher than YK-405 (293T cells [5]; difference vs YK-405): 33.35%
cell survival rate higher than YK-406 (293T cells [5]; difference vs YK-406): 50.25%
cell survival rate higher than YK-408 (293T cells [5]; difference vs YK-408): 32.90%
cell survival rate higher than YK-409 (293T cells [5]; difference vs YK-409): 29.10%
cell survival rate higher than YK-410 (293T cells [5]; difference vs YK-410): 30.29%
cell survival rate higher than YK-411 (293T cells [5]; difference vs YK-411): 58.88%
cell survival rate higher than YK-412 (293T cells [5]; difference vs YK-412): 21.07%
cell survival rate higher than YK-413 (293T cells [5]; difference vs YK-413): 28.01%
cell survival rate higher than YK-414 (293T cells [5]; difference vs YK-414): 46.46%
cell survival rate higher than YK-415 (293T cells [5]; difference vs YK-415): 14.05%
cell survival rate higher than YK-416 (293T cells [5]; difference vs YK-416): 34.24%
cell survival rate higher than YK-417 (293T cells [5]; difference vs YK-417): 53.87%
cell survival rate higher than YK-418 (293T cells [5]; difference vs YK-418): 54.16%
cell survival rate higher than YK-419 (293T cells [5]; difference vs YK-419): 36.29%
cell survival rate higher than YK-420 (293T cells [5]; difference vs YK-420): 39.62%
cell survival rate higher than YK-421 (293T cells [5]; difference vs YK-421): 39.50%
cell survival rate higher than YK-424 (293T cells [5]; difference vs YK-424): 47.28%
cell survival rate higher than compound 21 (293T cells [5]; difference vs compound 21): 7.37%
cell survival rate higher than compound 23 (293T cells [5]; difference vs compound 23): 6.10%
cytotoxicity reduced compared with YK-411 (293T cells [5]; rounded summary statement vs YK-411): 50%
